Patent US9388226B2, “Peptides modulating the activity of macrophages, useable for the treatment of rheumatoid arthritis” (Universite Paul Sabatier, priority 2006, dated 2016)
Non-standard residues stand in square brackets, D forms with d. No end group written: not given here. Cit = NC(=O)NCCC[C@H](N)C(=O)O

Tests used:
[1] = tested on: ACPAs in sera from patients suffering from RA; test: Reactivity of fibrin-derived citrullinated peptides with sera from RA patients having ACPAs; type: binding, human; settings: 20 sera from RA patients having detectable ACPAs
Source text: Among these peptides, those which bear immunodominant epitopes (recognized by a large number of sera from patients suffering from RA) are given in table 2. The 20 sera tested correspond to a series originating from patients suffering from RA having ACPAs detectable by means of multiple tests for detecting these autoantibodies and which, taken as a whole, make it possible to represent the heterogeneity of the specificity profiles encountered in the patients.

[2] = tested on: ACPA binding to citrullinated human fibrinogen; test: ELISA competition assay: inhibition of the reactivity of IgG ACPA+ with respect to citrullinated fibrinogen; settings: IgG ACPA+ 16 μg/ml; competitor 0.006 to 1.56 mg/ml added 2 h before ELISA; FIG. 2
Description: 96-well microtitration plates (MaxiSorp, Nunc, VWR International, Fontenay sous Bois, France) are coated with citrullinated human fibrinogen (prepared as indicated in example 1) at a rate of 100 μl/well of a solution at 5 μg/ml in PBS, pH 7.4, overnight at 4° C. The plates are then saturated with a solution of PBS containing 2% of BSA (PBS-2% BSA) (180 μl/well). After this step, the IgG ACPA+ (prepared as indicated in example 1), diluted beforehand to 16 μg/ml in PBS-2% BSA in the presence or absence of increasing amounts of the competitor peptides α36-50cit38, 42 and/or β60-74cit60, 72, 74 (each at a concentration ranging from 0.006 to 1.56 mg/ml) added 2 h before the ELISA assay, are added. The concentration used for the IgG ACPA+ was chosen because it makes it possible to obtain an OD of between 1 and 1.5 in the absence of competitor peptide. Citrullinated or noncitrullinated fibrinogen (0.0002 to 1.56 mg/ml) and the noncitrullinated forms of the α36-50cit38, 42 and β60-74cit60, 72, 74 peptides (respectively referred to as α36-50 and β60-74) are used as control. The ACPA binding is then detected with peroxidase-labeled anti-human IgG goat IgGs (SouthernBiotech, Birmingham, Ala.) diluted to 1/9000 in PBS-2% BSA. All the incubations are carried out for 1 h at 4° C. and are followed by washes in PBS-0.1% Tween 20.
The results of this ELISA competition assay are illustrated in FIG. 2. The data are representative of 3 experiments carried out with two different preparations of IgG ACPA+. The results are expressed as degree of inhibition of the reactivity obtained in the absence of competitor peptide.

human macrophages = test: Inhibition of the stimulation of human macrophages by ICs associating ACPAs and citrullinated fibrinogen, TNF-α in supernatants; type: cell-based; settings: IgG ACPA+ 1.13 mg/ml; for TNFα level: citrullinated fibrinogen plates
Description: The reconstitution of ICs associating ACPAs and citrullinated fibrinogen is carried out by coating flat-bottomed 96-well culture plates (Nunclon delta, Nunc, Roskilde, Denmark), under sterile conditions, with human citrullinated fibrinogen at 10 μg/ml, added at a rate of 50 μl/well and incubated overnight at 4° C. The plates are subsequently saturated in PBS, pH 7.4, 2% BSA for 1 hour at 4° C. (180 μl/well). After 3 washes in PBS, pH 7.4, 0.1% Tween-20, the wells are incubated for 2 hours at 4° C. with 100 μl of IgG ACPA+ at various concentrations (ranging from 9 to 0.28 mg/ml) diluted in PBS containing 2% BSA and 2M NaCl. Negative controls are made up in the same way, using either noncitrullinated human fibrinogen as antigen coated at the bottom of the plate, or control IgGs as antibodies. Wells coated only with citrullinated or noncitrullinated human fibrinogen and saturated in PBS, pH 7.4, 2% BSA are also used as negative controls.
After 3 washes in PBS, pH 7.4, 0.1% Tween-20, then 3 washes in PBS, the macrophages are added at a rate of 50000 viable cells/well in a volume of 200 μl. After incubation for 24 hours at 37° C. under an atmosphere containing 5% CO2, the supernatants are recovered (160 μl/well) and are rapidly frozen at −20° C. until they are analyzed. The negative control for activation is carried out using macrophages in macrophage-SFM medium alone. Macrophages placed on aggregated IgGs immobilized at the bottom of the culture plates by passive adsorption (at a rate of 100 μl of a solution at 5 μg/ml per well), or placed in the presence of bacterial lipopolysaccharide (LPS, Escherichia coli 0.55:B5 at a final concentration of 0.5 μg/ml; Sigma-Aldrich Chimie), are used as controls for the ability of the macrophages to respond to a stimulus inducing TNF-α synthesis.
An ELISA assay kit for human TNF-α, comprising a capture antibody, a detection antibody and recombinant human TNF-α for making up a calibration range of 7.8 to 500 pg/ml, was used to assay this cytokine in the culture supernatants (Human TNF-alpha BD OptEIA™ ELISA et, BD Biosciences Pharmingen, Pont-de-Claix, France).
The preparation and the stimulation of the macrophages are carried out exactly under the conditions described in example 1, except for the fact that the reconstitution of ICs is carried out with IgG ACPA+ diluted to 1.13 mg/ml in PBS containing 2M of NaCl and 2% of BSA in the presence or absence of the competitor peptide β60-74cit60, 72, 74 at two concentrations (0.8 and 4 mg/ml) added 2 h before the incubation with the citrullinated fibrinogen immobilized at the bottom of the culture plates. Competitions with citrullinated or noncitrullinated fibrinogen (0.4 mg/ml) and also with the noncitrullinated peptide β60-74 (0.8 and 4 mg/ml), are also carried out as control.

Row | percentage inhibition of the ACPA binding to the citrullinated fibrinogen, plateau value [2] | Substance | NUMBER OF REACTIVE SERA OUT OF THE 20 TESTED [1] | also measured
1 | approximately 15% | GPXVVEXHQSACKDS (GP[Cit]VVE[Cit]HQSACKDS) [α36-50cit38, 42, fibrinogen α-chain derived citrullinated peptide, X = citrullyl residue] | 12 | –
2 | – | SGIGTLDGFXHXHPD (SGIGTLDGF[Cit]H[Cit]HPD) [α501-515cit510, 512, fibrinogen α-chain derived citrullinated peptide, X = citrullyl residue] | 9 | –
3 | – | VDIDIKIXSCXGSCS (VDIDIKI[Cit]SC[Cit]GSCS; cysteine pairing not given here) [α171-185cit178, 181, fibrinogen α-chain derived citrullinated peptide, X = citrullyl residue] | 9 | –
4 | – | XGHAKSXPVXGIHTS ([Cit]GHAKS[Cit]PV[Cit]GIHTS) [α621-635cit621, 627, 630, fibrinogen α-chain derived citrullinated peptide, X = citrullyl residue] | 10 | –
5 | approximately 60% | XPAPPPISGGGYXAX ([Cit]PAPPPISGGGY[Cit]A[Cit]-NH2) [β60-74cit60, 72, 74, fibrinogen β-chain derived citrullinated peptide, X = citrullyl residue] | 14 | TNFα level (human macrophages; competitor peptide 0.8 mg/ml): approximately 40 pg/ml; TNFα level (human macrophages; competitor peptide 4 mg/ml): less than 20 pg/ml; effect on TNF-α production in response to the ICs (in words) (human macrophages; competitor 0.8 and 4 mg/ml (peptide)): dose-dependent inhibition
6 | approximately 80% | citrullinated fibrinogen: purified human fibrinogen incubated with rabbit skeletal muscle peptidylarginine deiminase | – | TNFα level (human macrophages; fibrinogen competitor 0.4 mg/ml): approximately 20 pg/ml
